The results in this text go back to PubChem BioAssay (NCI).

Each structure is given as a SMILES string. Where “and” joins values, the source holds several entries; their conditions need not be identical. Identical values can stand only once.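 Step 1: Grow cells in 96-well plates. Step 2: Expose to compound for 48 hours at 5 concentrations. Step 3: Interpolate endpoints linearly; if unreached, use highest concentration. At the GI50, growth is halved. Definition used: TGI = concentration required for complete inhibition of growth.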

Test systems include HOP-62 NSCLC; K-562 leukemia; DU-145 prostate; SK-MEL-5 melanoma; OVCAR-3 ovarian; OVCAR-8 ovarian; KM12 colon; HOP-92 NSCLC; NCI/ADR-RES ovarian; SR leukemia.
Assay in all cases: growth of human tumour cells (NCI), 48 h

Take `CCc1cc2c(c(OCC(F)(F)F)c(C(=O)NC3CCN(C(=O)CO)CC3)n2C)c(=O)n1CC(=O)c1ccccc1`: the GI50 in the experiment with HOP-62 NSCLC was over 80.9 µM; in the experiment with K-562 leukemia it was 34.4 µM; in the experiment on DU-145 prostate, over 100 µM; in the experiment on SK-MEL-5 melanoma, 80.2 µM; in the experiment on OVCAR-3 ovarian, over 100 µM; in the experiment with OVCAR-8 ovarian it was 45.5 µM. In addition, the GI50 in the experiment on KM12 colon is 58.5 µM; with HOP-92 NSCLC, over 62.4 µM; with NCI/ADR-RES ovarian, over 68.4 µM; in the experiment with SR leukemia, 50.7 µM. Moreover, the TGI in the experiment on HOP-62 NSCLC, in the experiment on K-562 leukemia, in the experiment with DU-145 prostate, in the experiment with SK-MEL-5 melanoma, in the experiment with OVCAR-3 ovarian and in the experiment with OVCAR-8 ovarian was over 100 µM in each case. For the same compound, the TGI in the experiment on KM12 colon, in the experiment with HOP-92 NSCLC, in the experiment on NCI/ADR-RES ovarian and in the experiment with SR leukemia was over 100 µM in each case.
`CCOC(=O)c1ccc(N2NC(=O)/C(=C/c3ccc([N+](=O)[O-])o3)C2=O)cc1`: the GI50 is 29.9 µM in the experiment on HOP-62 NSCLC; 9.64 µM in the experiment on K-562 leukemia; 18 µM in the experiment on DU-145 prostate; over 40.4 µM with SK-MEL-5 melanoma; 6.82 µM in the experiment on OVCAR-3 ovarian; 27.8 µM in the experiment with OVCAR-8 ovarian. Also, the GI50 was over 40.7 µM in the experiment with KM12 colon, 15.6 µM in the experiment with HOP-92 NSCLC, 25.9 µM in the experiment on NCI/ADR-RES ovarian and 10.1 µM with SR leukemia. Also, the TGI with HOP-62 NSCLC was over 55.7 µM; in the experiment on K-562 leukemia, over 73.3 µM; with DU-145 prostate, 32.3 µM; with SK-MEL-5 melanoma, over 54.9 µM; with OVCAR-3 ovarian, 17.1 µM; in the experiment on OVCAR-8 ovarian it was over 64.2 µM. Besides, the TGI in the experiment with KM12 colon is over 55.3 µM; in the experiment with HOP-92 NSCLC, 31.8 µM; in the experiment with NCI/ADR-RES ovarian it was over 71.8 µM; in the experiment with SR leukemia, 57.8 µM.
Consider `O=C(COc1ccccc1)NNc1ccccc1`, for which the GI50 was 116 µM in the experiment with HOP-62 NSCLC; 3.67 µM and 6.43 µM in the experiment on K-562 leukemia; over 300 µM with DU-145 prostate; 46.2 µM and 104 µM in the experiment on SK-MEL-5 melanoma; > 95.4 µM and 191 µM in the experiment with OVCAR-3 ovarian; > 56.1 µM and 58.3 µM in the experiment with OVCAR-8 ovarian. Also, the GI50 in the experiment on KM12 colon was 9.03 µM and 6.49 µM; in the experiment with HOP-92 NSCLC, 71 µM; in the experiment with NCI/ADR-RES ovarian, 58.1 µM and 63.3 µM; in the experiment with SR leukemia it was > 26.3 µM and 6.77 µM. In addition, the TGI in the experiment on HOP-62 NSCLC, in the experiment on K-562 leukemia, in the experiment with DU-145 prostate, in the experiment on SK-MEL-5 melanoma, in the experiment on OVCAR-3 ovarian and in the experiment on OVCAR-8 ovarian was over 300 µM in each case. In addition, the TGI was over 300 µM in the experiment with KM12 colon, 216 µM in the experiment with HOP-92 NSCLC, over 300 µM in the experiment on NCI/ADR-RES ovarian and over 300 µM in the experiment on SR leukemia.
With `Cc1nnn(C)c1-c1cnc2c3ccc(C(C)(C)O)cc3n([C@H](c3ccccc3)C3CCOCC3)c2c1`, the GI50 in the experiment with HOP-62 NSCLC was under 0.0227 µM; in the experiment on K-562 leukemia, under 0.01 µM; with DU-145 prostate it was 11.2 µM; in the experiment on SK-MEL-5 melanoma, under 0.01 µM; with OVCAR-3 ovarian, 0.0271 µM; with OVCAR-8 ovarian it was 0.0652 µM. For the same compound, the GI50 with KM12 colon was 0.141 µM; in the experiment on HOP-92 NSCLC it was under 0.01 µM; in the experiment with NCI/ADR-RES ovarian, 0.26 µM; in the experiment on SR leukemia, under 0.01 µM. Also, the TGI with HOP-62 NSCLC was over 46.9 µM; in the experiment with K-562 leukemia, over 100 µM; in the experiment with DU-145 prostate it was over 100 µM; in the experiment with SK-MEL-5 melanoma, 10.7 µM; with OVCAR-3 ovarian, 14.8 µM; with OVCAR-8 ovarian it was 31.6 µM. Moreover, the TGI was over 91.4 µM in the experiment on KM12 colon, 22.7 µM in the experiment with HOP-92 NSCLC, 37.8 µM with NCI/ADR-RES ovarian and over 100 µM in the experiment on SR leukemia.
Regarding `CC(C)C1=Cc2ccc3c(c2C(=O)C1=O)CCCC3`, the TGI in the experiment with HOP-62 NSCLC was determined as 42.1 µM; in the experiment on K-562 leukemia it was 14.1 µM; in the experiment with DU-145 prostate, 32 µM; with SK-MEL-5 melanoma it was 25.6 µM; with OVCAR-3 ovarian it was 5.33 µM; in the experiment with OVCAR-8 ovarian, 13.4 µM. Also, the TGI is 32.4 µM with KM12 colon, 2.27 µM in the experiment on HOP-92 NSCLC, 52.1 µM in the experiment on NCI/ADR-RES ovarian and 2.77 µM in the experiment on SR leukemia.
Consider `O=C(Nc1ccc(Cl)c(C(F)(F)F)c1)Nc1ccc(-c2cccnc2)cc1N1CCC(CO)CC1`, for which the GI50 in the experiment with HOP-62 NSCLC was 2.02 µM; in the experiment on K-562 leukemia it was 3.3 µM; with DU-145 prostate, 3.74 µM; in the experiment on SK-MEL-5 melanoma, 1.63 µM; in the experiment on OVCAR-3 ovarian, 1.84 µM; in the experiment with OVCAR-8 ovarian it was 3.75 µM. Besides, the GI50 in the experiment on KM12 colon is 2.2 µM; in the experiment on HOP-92 NSCLC, 2.22 µM; in the experiment on NCI/ADR-RES ovarian, 2.85 µM; in the experiment with SR leukemia, 3.49 µM. Moreover, the TGI with HOP-62 NSCLC was 5.09 µM; in the experiment on K-562 leukemia, over 100 µM; in the experiment with DU-145 prostate, over 100 µM; with SK-MEL-5 melanoma, 3.12 µM; with OVCAR-3 ovarian, 4.3 µM; in the experiment on OVCAR-8 ovarian, 35.4 µM. The TGI is 6.44 µM with KM12 colon, 5.6 µM with HOP-92 NSCLC, 9.11 µM in the experiment on NCI/ADR-RES ovarian and over 100 µM with SR leukemia.
Turning to `CN1CCc2ccccc2C1Cc1ccccc1NC(=O)c1sc2ccccc2c1Cl` (stereo not given), the TGI in the experiment on HOP-62 NSCLC, with K-562 leukemia, with DU-145 prostate, with SK-MEL-5 melanoma, in the experiment with OVCAR-3 ovarian and in the experiment with OVCAR-8 ovarian was over 100 µM throughout. Besides, the TGI in the experiment on KM12 colon, in the experiment with HOP-92 NSCLC, in the experiment on NCI/ADR-RES ovarian and in the experiment with SR leukemia was over 100 µM throughout.
On to `OCc1ccc(-c2nc(-c3ccc4c(c3)OCO4)c(-c3ccccn3)[nH]2)cc1`, for which the GI50 in the experiment with HOP-62 NSCLC is over 25 µM; with K-562 leukemia, over 25 µM; in the experiment on DU-145 prostate, over 25 µM; with SK-MEL-5 melanoma it was over 20 µM; with OVCAR-3 ovarian, over 25 µM; in the experiment with OVCAR-8 ovarian, over 25 µM. Moreover, the GI50 with KM12 colon is over 25 µM; in the experiment on HOP-92 NSCLC, over 12.9 µM; in the experiment on NCI/ADR-RES ovarian, 10.4 µM; in the experiment on SR leukemia, over 25 µM. For the same compound, the TGI in the experiment on HOP-62 NSCLC, with K-562 leukemia, in the experiment with DU-145 prostate, in the experiment with SK-MEL-5 melanoma, in the experiment on OVCAR-3 ovarian and in the experiment on OVCAR-8 ovarian was over 25 µM throughout. Also, the TGI with KM12 colon, in the experiment with HOP-92 NSCLC, in the experiment with NCI/ADR-RES ovarian and in the experiment with SR leukemia was over 25 µM throughout.
For the compound `Nc1nc(-c2cccnc2)cc(-c2cc(-c3cccnc3)nc(N)n2)n1`, the TGI with HOP-62 NSCLC, in the experiment with K-562 leukemia, in the experiment with DU-145 prostate, with SK-MEL-5 melanoma, with OVCAR-3 ovarian and with OVCAR-8 ovarian was over 100 µM throughout. The TGI with KM12 colon, in the experiment on HOP-92 NSCLC, with NCI/ADR-RES ovarian and in the experiment with SR leukemia was over 100 µM each time.
Regarding `O=C1CN=C(c2ccc[nH]2)c2cc(Cl)ccc2N1`, the GI50 is over 100 µM in the experiment with HOP-62 NSCLC; 54 µM in the experiment with K-562 leukemia; over 100 µM with DU-145 prostate; over 100 µM in the experiment on SK-MEL-5 melanoma; over 100 µM in the experiment with OVCAR-3 ovarian; over 100 µM in the experiment on OVCAR-8 ovarian. Also, the GI50 in the experiment on KM12 colon was over 100 µM; in the experiment on HOP-92 NSCLC it was 12.2 µM; in the experiment with NCI/ADR-RES ovarian, 57.4 µM; in the experiment with SR leukemia it was over 100 µM. The TGI in the experiment on HOP-62 NSCLC, in the experiment with K-562 leukemia, in the experiment with DU-145 prostate, with SK-MEL-5 melanoma, in the experiment on OVCAR-3 ovarian and in the experiment with OVCAR-8 ovarian was over 100 µM throughout. The TGI with KM12 colon, with HOP-92 NSCLC, in the experiment with NCI/ADR-RES ovarian and with SR leukemia was over 100 µM throughout.
Take `CC(C)[C@@]12C[C@@H](OC(=O)C3CO3)[C@@](C)(O1)[C@@H]1CC[C@@H](C)[C@H]1[C@@H]2OC(=O)/C=C/c1ccccc1` (stereo not given in full): the GI50 is 21.2 µM in the experiment on HOP-62 NSCLC; 33.2 µM in the experiment on K-562 leukemia; 26.4 µM with DU-145 prostate; 16.5 µM in the experiment on SK-MEL-5 melanoma; 15.8 µM in the experiment on OVCAR-3 ovarian; 5.33 µM in the experiment with OVCAR-8 ovarian. In addition, the GI50 with KM12 colon is 18.7 µM; in the experiment with HOP-92 NSCLC, 12.4 µM; with NCI/ADR-RES ovarian, 10.8 µM; in the experiment with SR leukemia it was 29.8 µM. The TGI in the experiment on HOP-62 NSCLC was over 100 µM; in the experiment with K-562 leukemia, over 100 µM; in the experiment on DU-145 prostate, 72.9 µM; in the experiment with SK-MEL-5 melanoma, 30.2 µM; in the experiment with OVCAR-3 ovarian it was 30 µM; in the experiment on OVCAR-8 ovarian it was 60.3 µM. For the same compound, the TGI with KM12 colon was 38.1 µM; with HOP-92 NSCLC, 27.7 µM; in the experiment with NCI/ADR-RES ovarian it was 37.4 µM; in the experiment with SR leukemia, over 100 µM.
In the case of `O=C(Nc1ccc(I)cc1F)c1cc(Br)ccc1O`, the GI50 with HOP-62 NSCLC was 2.03 µM; in the experiment on K-562 leukemia, 0.431 µM; in the experiment on DU-145 prostate, 0.865 µM; with SK-MEL-5 melanoma it was 0.251 µM; in the experiment with OVCAR-3 ovarian it was 0.457 µM; in the experiment on OVCAR-8 ovarian it was 0.83 µM. In addition, the GI50 in the experiment with KM12 colon was 2.2 µM; in the experiment on HOP-92 NSCLC, 0.162 µM; in the experiment on NCI/ADR-RES ovarian it was 0.613 µM; in the experiment with SR leukemia, 0.564 µM. Moreover, the TGI was 7.04 µM with HOP-62 NSCLC; over 100 µM in the experiment on K-562 leukemia; over 67.8 µM with DU-145 prostate; 0.714 µM in the experiment on SK-MEL-5 melanoma; 11.3 µM in the experiment with OVCAR-3 ovarian; over 24.2 µM with OVCAR-8 ovarian. Further, the TGI was 5.49 µM in the experiment with KM12 colon, 0.516 µM in the experiment with HOP-92 NSCLC, 4.5 µM in the experiment with NCI/ADR-RES ovarian and over 100 µM in the experiment on SR leukemia.
